Patent US20150320770A1, “NOVEL COMPOSITIONS AND METHODS FOR TREATING PROSTATE CANCER” (Tokai Pharmaceuticals, Inc., priority 2011, published 2015)

Experiment: API solubility assessment in common solvents
Format: physicochemical
Experimental: The solubility of the API was assessed in several common solvents systems to ensure obtaining the maximum API concentration for the spray drying process. […] Subsequently this binary solvent mixture was changed to the 2:1, methanol:acetone mixture due to long secondary drying times observed with the 2:1, methanol:THF system.

C[C@]12CC[C@H](O)CC1=CCC1C2CC[C@]2(C)C(n3cnc4ccccc43)=CCC12 (stereo partly drawn) [Compound (1), 3-β-Hydroxy17-(1H-benzimidazol-1-yl)androsta-5,16-diene]
API Solubility (%) (2:1 Acetone:Methanol): 4.16% | API Solubility (%) (2:1 Methanol:Acetone): 7.28% | API Solubility (%) (2:1 Methanol:Tetrahydrofuran): 16.64% | API Solubility (%) (Acetone): 1.04% | API Solubility (%) (Ethanol): 4.68% | API Solubility (%) (Ethyl Acetate): 0% | API Solubility (%) (Methanol): 4.16% | API Solubility (%) (Tetrahydrofuran): 7.28%
